This passage reports AC50 results from patent US20230365592A1 (Agios Pharmaceuticals, Inc., priority 2022, published 2023).

In the first test the target is T1, human PAH with the R408W mutation (Homo sapiens, UniProt P00439, R408W).
T1 construct: expressed in transfected cells
T1 sequence (P00439 1-452 R408W): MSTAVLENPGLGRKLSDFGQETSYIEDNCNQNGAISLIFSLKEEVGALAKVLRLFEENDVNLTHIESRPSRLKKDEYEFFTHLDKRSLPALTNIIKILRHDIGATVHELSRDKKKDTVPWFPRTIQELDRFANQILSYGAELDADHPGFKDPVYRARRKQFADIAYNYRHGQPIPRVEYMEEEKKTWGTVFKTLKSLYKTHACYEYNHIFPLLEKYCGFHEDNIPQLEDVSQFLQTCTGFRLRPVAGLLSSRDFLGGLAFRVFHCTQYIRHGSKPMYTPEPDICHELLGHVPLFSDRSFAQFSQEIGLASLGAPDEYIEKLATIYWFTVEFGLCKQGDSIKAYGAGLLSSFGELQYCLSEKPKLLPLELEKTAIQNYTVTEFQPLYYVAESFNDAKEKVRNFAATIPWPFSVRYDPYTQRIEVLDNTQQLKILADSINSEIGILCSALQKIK
Description: Cell Based Phenylalanine Flux Assay.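 Note: after compound treatment, cells received sepiapterin plus isotope-labelled Phenylalanine for 4 hours, then labelled Tyrosine in the medium was quantified, 10-point 2-fold dilution series run in duplicate.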 Conditions: A375 cells expressing R408W PAH; 24 hrs with compound, then 20 µM sepiapterin and 800 µM 13C9,15N-Phenylalanine for 4 hours; 13C-Tyrosine by LC-MS; average where tested multiple times; read-out: AC50.
Usually AC50 stands for the midpoint of the concentration-response curve, whichever way the signal moves. `Cc1nnc(C(=O)N2CCc3[nH]cnc3[C@@H]2c2cc3cccc(C(F)(F)F)n3n2)o1` (single isomer, unassigned): the AC50 fell in the range of 1000 to 5000 nM.
Still for that read-out and setting: for `Cc1nnc(C(=O)N2CCc3[nH]cnc3[C@H]2c2cc3ccc(F)cn3n2)o1` (single isomer, unassigned) the value was 1000 to 5000 nM; for `Cc1c(C2c3nc[nH]c3CCN2C(=O)c2nnc(C(C)(C)F)o2)nn2ccccc12` (stereo not drawn), 1000 to 5000 nM; for `Cc1ccn2nc(C3c4nc[nH]c4CCN3C(=O)c3nnc(C)o3)cc2c1` (stereo not drawn), greater than 5000 nM.
On the same count and under the same terms, the result for `Cc1c(C2c3nc[nH]c3CCN2C(=O)c2nnc(C(C)(C)C)o2)nn2ccccc12` (stereo not drawn) reads 1000 to 5000 nM.

Still in this test, the particulars now being: A375 cells expressing human PAH R408W; 24 hrs compound incubation; 13C-Tyrosine by LC-MS; average where tested multiple times; read-out: AC50.
Consider `FC(F)c1cccc2cc([C@@H]3c4nc[nH]c4CCN3c3nnc(C(F)(F)F)o3)nn12` [Example 2487, (S)-2-(4-(7-(difluoromethyl)pyrazolo[1,5-a]pyridin-2-yl)-6,7-dihydro-1H-imidazo[4,5-c]pyridin-5(4H)-yl)-5-(trifluoromethyl)-1,3,4-oxadiazole], for which the AC50 was 1000 to 5000 nM.
Still for that read-out and setting: the result for `FC(F)c1nnc(N2CCc3[nH]cnc3[C@@H]2c2cc3c(C4CC4)cccn3n2)o1` [Example 2166, (R)-2-(4-(4-cyclopropylpyrazolo[1,5-a]pyridin-2-yl)-1,4,6,7-tetrahydro-5H-imidazo[4,5-c]pyridin-5-yl)-5-(difluoromethyl)-1,3,4-oxadiazole] reads greater than 5000 nM; that for `Cn1nc(C(F)F)nc1C(=O)N1CCc2[nH]cnc2[C@H]1c1cc2cc(C(F)(F)F)ccn2n1` [Example 2410, (S)-(3-(difluoromethyl)-1-methyl-1H-1,2,4-triazol-5-yl)(4-(5-(trifluoromethyl)pyrazolo[1,5-a]pyridin-2-yl)-6,7-dihydro-1H-imidazo[4,5-c]pyridin-5(4H)-yl)methanone], 500 to 1000 nM; that for `FC(F)Oc1cccn2nc([C@@H]3c4nc[nH]c4CCN3c3ncc(C(F)(F)F)cn3)cc12` [Example 2256, (S)-4-(4-(difluoromethoxy)pyrazolo[1,5-a]pyridin-2-yl)-5-(5-(trifluoromethyl)pyrimidin-2-yl)-4,5,6,7-tetrahydro-1H-imidazo[4,5-c]pyridine], less than 500 nM.
Still for that read-out and setting: the result for `CC(C)c1cccn2nc([C@@H]3c4nc[nH]c4CCN3C(=O)c3nnc(-c4cnccn4)o3)cc12` [Example 1934, (S)-(4-(4-isopropylpyrazolo[1,5-a]pyridin-2-yl)-1,4,6,7-tetrahydro-5H-imidazo[4,5-c]pyridin-5-yl)(5-(pyrazin-2-yl)-1,3,4-oxadiazol-2-yl)methanone] reads less than 500 nM; that for `Cn1nc(C2CC2)nc1C(=O)N1CCc2[nH]cnc2[C@H]1c1cc2cccc(C(F)(F)F)n2n1` [Example 2419, (S)-(3-cyclopropyl-1-methyl-1H-1,2,4-triazol-5-yl)(4-(7-(trifluoromethyl)pyrazolo[1,5-a]pyridin-2-yl)-6,7-dihydro-1H-imidazo[4,5-c]pyridin-5(4H)-yl)methanone], 1000 to 5000 nM; that for `Cn1cc(-c2nnc(C(=O)N3CCc4[nH]cnc4[C@@H]3c3cc4ccccn4n3)s2)cn1` [Example 2044, (R)-(5-(1-methyl-1H-pyrazol-4-yl)-1,3,4-thiadiazol-2-yl)(4-(pyrazolo[1,5-a]pyridin-2-yl)-1,4,6,7-tetrahydro-5H-imidazo[4,5-c]pyridin-5-yl)methanone], greater than 5000 nM.
As to `O=C(c1cnn2cc(-c3ccccn3)ccc12)N1CCc2[nH]cnc2[C@H]1c1cc2cccc(C(F)(F)F)n2n1` [Example 2452, (S)-(6-(pyridin-2-yl)pyrazolo[1,5-a]pyridin-3-yl)(4-(7-(trifluoromethyl)pyrazolo[1,5-a]pyridin-2-yl)-6,7-dihydro-1H-imidazo[4,5-c]pyridin-5(4H)-yl)methanone], the AC50 is 1000 to 5000 nM.

Staying with this test, now noted: A375 cells expressing human R408W PAH; 24 hrs compound incubation; 13C-Tyrosine by LC-MS; average where tested multiple times; read-out: AC50.
`Cc1cnn(C)c1-c1nnc(C(=O)N2CCc3[nH]cnc3[C@@H]2c2cc3cccc(C(F)F)n3n2)o1` [Example 1585, (R)-(4-(7-(difluoromethyl)pyrazolo[1,5-a]pyridin-2-yl)-6,7-dihydro-1H-imidazo[4,5-c]pyridin-5(4H)-yl)(5-(1,4-dimethyl-1H-pyrazol-5-yl)-1,3,4-oxadiazol-2-yl)methanone]: the AC50 was greater than 5000 nM.
On to `O=C(c1ccnn1C(F)F)N1CCc2[nH]cnc2[C@H]1c1cc2c(Cl)cccn2n1` [Example 782, (S)-(4-(4-chloropyrazolo[1,5-a]pyridin-2-yl)-6,7-dihydro-1H-imidazo[4,5-c]pyridin-5(4H)-yl)(1-(difluoromethyl)-1H-pyrazol-5-yl)methanone], for which the AC50 is less than 500 nM.
Same read-out and setting: the result for `Cc1cccc(-c2nnc(C(=O)N3CCc4[nH]cnc4[C@@H]3c3cc4cccc(F)n4n3)o2)n1` [Example 1497, (R)-(4-(7-fluoropyrazolo[1,5-a]pyridin-2-yl)-6,7-dihydro-1H-imidazo[4,5-c]pyridin-5(4H)-yl)(5-(6-methylpyridin-2-yl)-1,3,4-oxadiazol-2-yl)methanone] reads 1000 to 5000 nM.
Consider `Cc1cccc2cc([C@@H]3c4nc[nH]c4CCN3C(=O)c3nnc(-c4ccccn4)o3)nn12` [Example 798, (S)-(4-(7-methylpyrazolo[1,5-a]pyridin-2-yl)-6,7-dihydro-1H-imidazo[4,5-c]pyridin-5(4H)-yl)(5-(pyridin-2-yl)-1,3,4-oxadiazol-2-yl)methanone], for which the AC50 was less than 500 nM.
Same read-out and setting: for `O=C(c1nnc(-c2cnn(C(F)F)c2)o1)N1CCc2[nH]cnc2[C@H]1c1cc2c(C(F)F)cccn2n1` [Example 1374, (S)-(5-(1-(difluoromethyl)-1H-pyrazol-4-yl)-1,3,4-oxadiazol-2-yl)(4-(4-(difluoromethyl)pyrazolo[1,5-a]pyridin-2-yl)-6,7-dihydro-1H-imidazo[4,5-c]pyridin-5(4H)-yl)methanone] the value was less than 500 nM; for `CC(C)(C#N)c1nc(C(F)F)c(C(=O)N2CCc3[nH]cnc3[C@H]2c2cc3ccccn3n2)o1` [Example 699, (S)-2-(4-(difluoromethyl)-5-(4-(pyrazolo[1,5-a]pyridin-2-yl)-4,5,6,7-tetrahydro-1H-imidazo[4,5-c]pyridine-5-carbonyl)oxazol-2-yl)-2-methylpropanenitrile], less than 500 nM.
Turning to `O=C(c1nnc(-c2cnn(C(F)F)c2)o1)N1CCc2[nH]cnc2[C@H]1c1cc2cccc(C(F)(F)F)n2n1` [Example 1040, (S)-(5-(1-(difluoromethyl)-1H-pyrazol-4-yl)-1,3,4-oxadiazol-2-yl)(4-(7-(trifluoromethyl)pyrazolo[1,5-a]pyridin-2-yl)-6,7-dihydro-1H-imidazo[4,5-c]pyridin-5(4H)-yl)methanone], the AC50 is 500 to 1000 nM.
Still for that read-out and setting: the result for `O=C(c1oc(-c2ccccn2)nc1C1CC1)N1CCc2[nH]cnc2[C@@H]1c1cc2ccccn2n1` [Example 623, (R)-(4-cyclopropyl-2-(pyridin-2-yl)oxazol-5-yl)(4-(pyrazolo[1,5-a]pyridin-2-yl)-6,7-dihydro-1H-imidazo[4,5-c]pyridin-5(4H)-yl)methanone] reads 1000 to 5000 nM.
For `CC(C)(F)c1nc(C(F)F)c(C(=O)N2CCc3[nH]cnc3[C@@H]2c2cc3c(Cl)cccn3n2)o1` [Example 1229, (R)-(4-(4-chloropyrazolo[1,5-a]pyridin-2-yl)-6,7-dihydro-1H-imidazo[4,5-c]pyridin-5(4H)-yl)(4-(difluoromethyl)-2-(2-fluoropropan-2-yl)oxazol-5-yl)methanone], the AC50 is 500 to 1000 nM.
Still for that read-out and setting: the result for `Cn1cc(-c2nnc(C(=O)N3CCc4[nH]cnc4[C@@H]3c3cc4cccc(C(F)(F)F)n4n3)o2)cn1` [Example 953, (R)-(5-(1-methyl-1H-pyrazol-4-yl)-1,3,4-oxadiazol-2-yl)(4-(7-(trifluoromethyl)pyrazolo[1,5-a]pyridin-2-yl)-6,7-dihydro-1H-imidazo[4,5-c]pyridin-5(4H)-yl)methanone] reads 1000 to 5000 nM; that for `Cc1cccn2nc([C@@H]3c4nc[nH]c4CCN3C(=O)c3nnc(-c4cnn(C(F)F)c4)o3)cc12` [Example 820, (S)-(5-(1-(difluoromethyl)-1H-pyrazol-4-yl)-1,3,4-oxadiazol-2-yl)(4-(4-methylpyrazolo[1,5-a]pyridin-2-yl)-6,7-dihydro-1H-imidazo[4,5-c]pyridin-5(4H)-yl)methanone], less than 500 nM; that for `CC1(c2nnc(C(=O)N3CCc4[nH]cnc4[C@@H]3c3cc4c(C(F)(F)F)cccn4n3)o2)CC1` [Example 1324, (R)-(5-(1-methylcyclopropyl)-1,3,4-oxadiazol-2-yl)(4-(4-(trifluoromethyl)pyrazolo[1,5-a]pyridin-2-yl)-6,7-dihydro-1H-imidazo[4,5-c]pyridin-5(4H)-yl)methanone], 1000 to 5000 nM.
`COc1ccc2c(C(=O)N3CCc4[nH]cnc4[C@@H]3c3cc4c(C(F)F)cccn4n3)cnn2c1` [Example 1677, (R)-(4-(4-(difluoromethyl)pyrazolo[1,5-a]pyridin-2-yl)-6,7-dihydro-1H-imidazo[4,5-c]pyridin-5(4H)-yl)(6-methoxypyrazolo[1,5-a]pyridin-3-yl)methanone]: the AC50 is greater than 5000 nM.
Same read-out and setting: the result for `COc1ccc(-c2nnc(C(=O)N3CCc4[nH]cnc4[C@H]3c3cc4cccc(Cl)n4n3)o2)nc1` [Example 1097, (S)-(4-(7-chloropyrazolo[1,5-a]pyridin-2-yl)-6,7-dihydro-1H-imidazo[4,5-c]pyridin-5(4H)-yl)(5-(5-methoxypyridin-2-yl)-1,3,4-oxadiazol-2-yl)methanone] reads 500 to 1000 nM.
